In article PMC10175918 (Communications Biology, 2023) one finds activation data, which are given here for 5 compounds.

Where two headings read alike, the source gives them in different places.

What all share (assay): TGFα-shedding assay-based GPCR screening with chimeric Gα subunit proteins
Type in all cases: cell-based

Assay [1] deals with T1, 348 GPCRs (Homo sapiens, UniProt P48146).
T1 construct: expressed in transfected cells; host or cells: HEK293A
To be noted: 10µM, Favipiravir 100μM.

The target in assay [2] is 348 GPCRs (Homo sapiens, UniProt P21453). The settings on record: 10µM, Favipiravir 100μM.
In assay [3] the target is T2, 348 GPCRs (Homo sapiens, UniProt Q99678).
T2 construct: expressed in transfected cells; host or cells: HEK293A
To be noted: 10µM, Favipiravir 100μM.

Assay [4] addresses T3, 348 GPCRs (Homo sapiens, UniProt Q96P67).
T3 construct: expressed in transfected cells; host or cells: HEK293A
The settings on record: 10µM, Favipiravir 100μM.

Assay [5] addresses T4, 348 GPCRs (Homo sapiens, UniProt P08172).
T4 sequence (P08172 1-466): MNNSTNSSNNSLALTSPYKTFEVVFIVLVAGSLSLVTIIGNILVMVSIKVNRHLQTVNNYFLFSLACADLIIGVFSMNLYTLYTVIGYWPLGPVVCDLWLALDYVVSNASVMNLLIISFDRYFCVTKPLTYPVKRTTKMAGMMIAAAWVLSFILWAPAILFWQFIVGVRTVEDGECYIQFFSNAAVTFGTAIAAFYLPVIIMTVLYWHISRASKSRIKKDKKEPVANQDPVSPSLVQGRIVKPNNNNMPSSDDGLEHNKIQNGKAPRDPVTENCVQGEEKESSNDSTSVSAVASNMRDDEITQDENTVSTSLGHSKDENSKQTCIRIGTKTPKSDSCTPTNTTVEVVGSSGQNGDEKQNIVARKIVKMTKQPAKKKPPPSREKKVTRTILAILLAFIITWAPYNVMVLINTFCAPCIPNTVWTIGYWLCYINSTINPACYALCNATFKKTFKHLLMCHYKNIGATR

Assay [6] concerns the target 348 GPCRs (Homo sapiens, UniProt P61073).
Assay [7] concerns the target T5, 348 GPCRs (Homo sapiens, UniProt P51684).
T5 construct: expressed in transfected cells; host or cells: HEK293A
T5 sequence (P51684 1-374): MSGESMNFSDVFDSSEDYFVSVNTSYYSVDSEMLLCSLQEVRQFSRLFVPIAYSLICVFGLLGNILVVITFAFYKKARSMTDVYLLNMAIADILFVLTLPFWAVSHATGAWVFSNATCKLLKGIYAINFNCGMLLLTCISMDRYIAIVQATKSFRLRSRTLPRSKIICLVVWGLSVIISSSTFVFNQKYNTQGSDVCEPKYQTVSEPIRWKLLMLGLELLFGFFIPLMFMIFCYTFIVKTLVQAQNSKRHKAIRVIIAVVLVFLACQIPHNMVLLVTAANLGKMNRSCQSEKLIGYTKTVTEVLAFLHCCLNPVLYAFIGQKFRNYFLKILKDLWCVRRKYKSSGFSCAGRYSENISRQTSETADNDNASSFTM
To be noted: 10µM, Favipiravir 100μM.

The target of assay [8] is T6, 348 GPCRs (Homo sapiens, UniProt P30542).
T6 sequence (P30542 1-326): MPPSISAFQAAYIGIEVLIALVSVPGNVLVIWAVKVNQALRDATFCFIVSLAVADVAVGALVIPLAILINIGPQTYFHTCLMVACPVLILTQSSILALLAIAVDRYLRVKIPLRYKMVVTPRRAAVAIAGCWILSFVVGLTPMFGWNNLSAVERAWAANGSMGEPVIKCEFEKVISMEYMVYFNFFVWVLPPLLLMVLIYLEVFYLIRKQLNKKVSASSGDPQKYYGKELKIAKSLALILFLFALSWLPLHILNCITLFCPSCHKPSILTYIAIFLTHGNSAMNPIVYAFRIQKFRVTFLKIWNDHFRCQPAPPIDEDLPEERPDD
The settings on record: 10µM, Favipiravir 100μM.

The target of assay [9] is T7, 348 GPCRs (Homo sapiens, UniProt Q9HBW0).
T7 construct: expressed in transfected cells; host or cells: HEK293A
To be noted: 10µM, Favipiravir 100μM.

The target in assay [10] is T8, 348 GPCRs (Homo sapiens, UniProt Q9HB89).
T8 construct: expressed in transfected cells; host or cells: HEK293A
T8 sequence (Q9HB89 1-426): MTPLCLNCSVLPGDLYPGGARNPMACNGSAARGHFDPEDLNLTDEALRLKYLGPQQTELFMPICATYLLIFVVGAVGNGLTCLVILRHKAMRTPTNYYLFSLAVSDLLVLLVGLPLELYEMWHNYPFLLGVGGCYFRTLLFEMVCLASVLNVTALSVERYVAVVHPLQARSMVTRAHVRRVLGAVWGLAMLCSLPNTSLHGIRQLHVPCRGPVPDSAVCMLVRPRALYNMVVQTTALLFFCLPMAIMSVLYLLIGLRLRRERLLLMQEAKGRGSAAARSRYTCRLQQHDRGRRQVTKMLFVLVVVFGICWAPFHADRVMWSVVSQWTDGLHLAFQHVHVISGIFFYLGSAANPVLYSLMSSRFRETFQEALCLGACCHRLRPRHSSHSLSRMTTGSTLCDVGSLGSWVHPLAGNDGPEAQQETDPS
The settings on record: 10µM, Favipiravir 100μM.

The target in assay [11] is T9, 348 GPCRs (Homo sapiens, UniProt Q99679).
T9 construct: expressed in transfected cells; host or cells: HEK293A
The settings on record: 10µM, Favipiravir 100μM.

Setting [12] is: NPBWR2 (neuropeptides B and W receptor 2), read-out: % GPCR activation compared to TPA.
Setting [13] is: S1PR1 (sphingosine-1-phosphate receptor 1), read-out: % GPCR activation compared to TPA.
Where [14] appears, read: GPR20 (G protein-coupled receptor 20), read-out: % GPCR activation compared to TPA.
Where [15] appears, read: GPR82 (G Protein-Coupled Receptor 82), read-out: % GPCR activation compared to TPA.
[16] abbreviates: CCR6 (C-C motif chemokine receptor 6), read-out: % GPCR activation compared to TPA.
Setting [17] is: ADORA1 (adenosine A1 receptor), read-out: % GPCR activation compared to TPA.
Setting [18] is: LPAR2 (lysophosphatidic acid receptor 2), read-out: % GPCR activation compared to TPA.
Where [19] appears, read: NMUR1 (neuromedin U receptor 1), read-out: % GPCR activation compared to TPA.
The mark [20] stands for this setting: GPR21 (G Protein-Coupled Receptor 21), read-out: % GPCR activation compared to TPA.
[21] abbreviates: read-out: % GPCR activation compared to TPA, NPBWR2 (neuropeptides B and W receptor 2).
The mark [22] stands for this setting: read-out: % GPCR activation compared to TPA, S1PR1 (sphingosine-1-phosphate receptor 1).
Setting [23] is: read-out: % GPCR activation compared to TPA, GPR20 (G protein-coupled receptor 20).
The mark [24] stands for this setting: read-out: % GPCR activation compared to TPA, GPR82 (G Protein-Coupled Receptor 82).
The mark [25] stands for this setting: read-out: % GPCR activation compared to TPA, GPCR M2 (Muscarinic acetylcholine receptor M2).
Setting [26] is: read-out: % GPCR activation compared to TPA, GPCR CXCR4 (chemokine (C-X-C motif) receptor 4).
Where [27] appears, read: read-out: % GPCR activation compared to TPA, CCR6 (C-C motif chemokine receptor 6).
The mark [28] stands for this setting: read-out: % GPCR activation compared to TPA, ADORA1 (adenosine A1 receptor).
Setting [29] is: read-out: % GPCR activation compared to TPA, LPAR2 (lysophosphatidic acid receptor 2).
Where [30] appears, read: read-out: % GPCR activation compared to TPA, NMUR1 (neuromedin U receptor 1).
Setting [31] is: read-out: % GPCR activation compared to TPA, GPR21 (G Protein-Coupled Receptor 21).
Setting [32] is: GPCR M2 (Muscarinic acetylcholine receptor M2), read-out: % GPCR activation compared to TPA.
Where [33] appears, read: GPCR CXCR4 (chemokine (C-X-C motif) receptor 4), read-out: % GPCR activation compared to TPA.

T1 sequence (P48146 whole entry): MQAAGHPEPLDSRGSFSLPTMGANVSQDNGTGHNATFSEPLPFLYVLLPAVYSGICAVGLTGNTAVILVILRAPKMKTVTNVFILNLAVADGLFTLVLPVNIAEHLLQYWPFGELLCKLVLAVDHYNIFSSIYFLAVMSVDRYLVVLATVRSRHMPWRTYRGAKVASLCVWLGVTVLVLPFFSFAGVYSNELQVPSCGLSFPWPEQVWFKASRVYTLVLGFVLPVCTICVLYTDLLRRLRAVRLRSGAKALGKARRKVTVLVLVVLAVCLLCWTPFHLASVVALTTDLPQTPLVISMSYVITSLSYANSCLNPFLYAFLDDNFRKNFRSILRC
T3 sequence (Q96P67 whole entry): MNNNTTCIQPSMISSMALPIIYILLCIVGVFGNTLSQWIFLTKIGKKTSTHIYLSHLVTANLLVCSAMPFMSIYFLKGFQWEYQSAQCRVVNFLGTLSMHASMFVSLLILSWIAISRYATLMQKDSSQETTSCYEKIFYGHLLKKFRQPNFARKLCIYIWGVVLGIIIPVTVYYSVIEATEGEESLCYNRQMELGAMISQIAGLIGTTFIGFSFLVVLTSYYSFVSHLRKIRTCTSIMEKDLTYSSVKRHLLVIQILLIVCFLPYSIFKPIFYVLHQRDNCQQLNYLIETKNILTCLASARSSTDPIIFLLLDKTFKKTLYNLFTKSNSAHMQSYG
T7 sequence (Q9HBW0 whole entry): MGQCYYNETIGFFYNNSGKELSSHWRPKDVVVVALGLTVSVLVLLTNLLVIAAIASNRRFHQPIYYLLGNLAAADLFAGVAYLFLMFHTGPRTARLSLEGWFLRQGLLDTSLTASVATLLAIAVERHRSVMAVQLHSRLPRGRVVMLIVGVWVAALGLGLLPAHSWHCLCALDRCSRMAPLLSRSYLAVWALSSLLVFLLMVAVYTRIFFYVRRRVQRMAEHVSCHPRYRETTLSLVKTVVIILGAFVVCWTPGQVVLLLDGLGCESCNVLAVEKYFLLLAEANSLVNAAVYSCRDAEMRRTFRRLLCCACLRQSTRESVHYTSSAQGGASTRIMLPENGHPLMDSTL
Sequence of 348 GPCRs (Homo sapiens, UniProt P21453) (P21453 whole entry): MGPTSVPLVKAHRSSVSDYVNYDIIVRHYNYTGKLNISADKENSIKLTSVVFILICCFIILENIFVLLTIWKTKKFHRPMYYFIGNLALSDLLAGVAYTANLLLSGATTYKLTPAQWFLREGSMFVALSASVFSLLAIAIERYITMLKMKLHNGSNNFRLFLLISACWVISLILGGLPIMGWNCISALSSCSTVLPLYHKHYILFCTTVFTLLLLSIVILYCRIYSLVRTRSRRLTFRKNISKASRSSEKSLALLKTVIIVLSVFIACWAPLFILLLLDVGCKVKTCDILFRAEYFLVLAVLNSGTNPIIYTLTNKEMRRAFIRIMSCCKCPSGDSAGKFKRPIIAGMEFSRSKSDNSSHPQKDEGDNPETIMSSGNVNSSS
Sequence of 348 GPCRs (Homo sapiens, UniProt P61073) (P61073 whole entry): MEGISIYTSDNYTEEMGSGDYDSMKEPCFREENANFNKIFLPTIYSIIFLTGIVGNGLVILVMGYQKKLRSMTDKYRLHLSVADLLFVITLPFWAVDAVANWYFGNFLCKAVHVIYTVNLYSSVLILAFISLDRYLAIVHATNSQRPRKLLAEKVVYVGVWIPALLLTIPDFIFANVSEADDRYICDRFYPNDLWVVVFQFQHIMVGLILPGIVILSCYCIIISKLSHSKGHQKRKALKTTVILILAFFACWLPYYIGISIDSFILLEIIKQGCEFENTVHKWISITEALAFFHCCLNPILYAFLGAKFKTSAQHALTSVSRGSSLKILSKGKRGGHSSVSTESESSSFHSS
T2 sequence (Q99678 whole entry): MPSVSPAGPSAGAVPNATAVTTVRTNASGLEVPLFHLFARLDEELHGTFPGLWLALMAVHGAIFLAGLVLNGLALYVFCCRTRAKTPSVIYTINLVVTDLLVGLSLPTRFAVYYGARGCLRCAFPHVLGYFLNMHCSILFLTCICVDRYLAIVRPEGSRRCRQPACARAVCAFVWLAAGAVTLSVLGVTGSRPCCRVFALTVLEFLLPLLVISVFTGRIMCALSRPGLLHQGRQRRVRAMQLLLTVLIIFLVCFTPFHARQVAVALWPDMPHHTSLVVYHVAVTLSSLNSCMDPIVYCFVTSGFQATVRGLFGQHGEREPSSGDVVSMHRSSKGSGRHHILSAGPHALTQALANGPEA
T9 sequence (Q99679 whole entry): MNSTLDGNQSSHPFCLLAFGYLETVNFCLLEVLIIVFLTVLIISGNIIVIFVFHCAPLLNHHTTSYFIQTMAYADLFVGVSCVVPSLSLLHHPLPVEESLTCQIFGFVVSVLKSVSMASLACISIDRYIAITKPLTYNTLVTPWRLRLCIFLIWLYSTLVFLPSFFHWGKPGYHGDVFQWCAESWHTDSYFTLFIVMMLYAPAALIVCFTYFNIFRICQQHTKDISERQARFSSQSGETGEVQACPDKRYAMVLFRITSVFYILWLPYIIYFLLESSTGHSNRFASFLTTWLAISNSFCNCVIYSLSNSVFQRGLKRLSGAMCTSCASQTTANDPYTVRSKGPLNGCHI

Take `NC(=O)c1nc(F)cnc1O` [favipiravir, 6-fluoro-3-hydroxy-2-pyrazinecarboxamide]: the activation at 10 µM is -4.53% at 348 GPCRs [1] (setting [12]); -0.836% on 348 GPCRs [2] (setting [13]); 0.146% on 348 GPCRs [7] (setting [16]); 1.47% at 348 GPCRs [9] (setting [18]); 0.18% on 348 GPCRs [10] (setting [19]). Besides, the activation at 100 µM is 3.63% at 348 GPCRs [3] (setting [14]); -0.0995% on 348 GPCRs [4] (setting [15]); 2.32% at 348 GPCRs [5] (GPCR M2 (Muscarinic acetylcholine receptor M2), 100μM, read-out: % GPCR activation compared to TPA); -0.773% at 348 GPCRs [6] (GPCR CXCR4 (chemokine (C-X-C motif) receptor 4), 100μM, read-out: % GPCR activation compared to TPA); -0.249% on 348 GPCRs [8] (setting [17]); -0.0313% on 348 GPCRs [11] (setting [20]).
As for `CC(C)OC(=O)[C@H](C)N[P@](=O)(OC[C@H]1O[C@@H](n2ccc(=O)[nH]c2=O)[C@](C)(F)[C@@H]1O)Oc1ccccc1` [sofosbuvir], the activation at 10 µM is -2.75% on 348 GPCRs [1] (setting [21]); 0.0873% at 348 GPCRs [2] (setting [22]); 1.35% on 348 GPCRs [5] (setting [25]); 1.3% at 348 GPCRs [6] (setting [26]); -3.43% at 348 GPCRs [7] (setting [27]); 2.99% on 348 GPCRs [9] (setting [29]). Further, at 348 GPCRs [10] (setting [30]), the activation at 10 µM is -2.52%. Further, the activation at 100 µM is -2.45% at 348 GPCRs [3] (setting [23]), 0.262% on 348 GPCRs [4] (setting [24]), 1.9% at 348 GPCRs [8] (setting [28]) and 0.161% on 348 GPCRs [11] (setting [31]).
As for `CCC(CC)COC(=O)[C@H](C)N[P@](=O)(OC[C@H]1O[C@@](C#N)(c2ccc3c(N)ncnn23)[C@H](O)[C@@H]1O)Oc1ccccc1` [remdesivir], the activation at 10 µM is -4.48% at 348 GPCRs [1] (setting [21]); -1.92% at 348 GPCRs [2] (setting [22]); 6% on 348 GPCRs [5] (setting [25]); 1.64% at 348 GPCRs [6] (setting [26]); 2.34% at 348 GPCRs [7] (setting [27]); 1.11% on 348 GPCRs [9] (setting [29]). The activation at 10 µM on 348 GPCRs [10] (setting [30]) was found to be 0.248%. For the same compound, the activation at 100 µM on 348 GPCRs [3] (setting [23]) was 8.9%; on 348 GPCRs [4] (setting [24]), -0.315%; at 348 GPCRs [8] (setting [28]), 3.8%; at 348 GPCRs [11] (setting [31]), -0.776%.
As for `N#C[C@@]1(c2ccc3c(N)ncnn23)O[C@H](CO)[C@@H](O)[C@H]1O` [GS441524], the activation at 10 µM was -1.66% at 348 GPCRs [1] (setting [12]); -1.43% on 348 GPCRs [2] (setting [13]); 4.87% on 348 GPCRs [5] (setting [32]); -0.228% on 348 GPCRs [6] (setting [33]); 0.67% at 348 GPCRs [7] (setting [16]); -0.123% on 348 GPCRs [9] (setting [18]). On 348 GPCRs [10] (setting [19]), the activation at 10 µM was -0.746%. Besides, the activation at 100 µM on 348 GPCRs [3] (setting [14]) is 7.2%; on 348 GPCRs [4] (setting [15]), -1.55%; at 348 GPCRs [8] (setting [17]) it was 0.705%; on 348 GPCRs [11] (setting [20]), 0.0472%.
Take `CC(C)C(=O)OC[C@H]1O[C@@H](n2ccc(NO)nc2=O)[C@H](O)[C@@H]1O` [molnupiravir]: the activation at 10 µM was -2.92% on 348 GPCRs [1] (setting [12]); -2.19% on 348 GPCRs [2] (setting [13]); 0.695% at 348 GPCRs [5] (setting [32]); -1.55% on 348 GPCRs [6] (setting [33]); -2.53% on 348 GPCRs [7] (setting [16]); 2.59% at 348 GPCRs [9] (setting [18]). Moreover, the activation at 10 µM at 348 GPCRs [10] (setting [19]) is -0.0262%. Moreover, the activation at 100 µM is -0.078% at 348 GPCRs [3] (setting [14]), -1.43% on 348 GPCRs [4] (setting [15]), -3.9% at 348 GPCRs [8] (setting [17]) and 0.1% on 348 GPCRs [11] (setting [20]).
